From patent US20060216699A1, “Peptides for the detection of HIV-1 group O” (priority 1998, published 2006)

Legend:
[1] = test system: anti-HIV-1 group O antibodies present in human serum; experiment: ELISA: biotinylated peptide bound to streptavidin-coated wells, HIV-1 group O sera, anti-IgG:HRP, OPD, absorbance at 492 nm; assay type: binding
Protocol: Serological recognition of the peptide by HIV-1 group O sera. Peptide 147 was evaluated for its ability to be recognized by anti-HIV-1 group O antibodies present in human serum from infected individuals. All group O samples were confirmed to be positive for HIV-1 group O by reverse transcriptase-polymerase chain reaction (RT-PCR) amplification of viral gp41 sequences using O-specific primers. The identity of the PCR product was further confirmed by DNA sequencing.
This technique involves binding of the antigen to a solid phase, bringing the fluid to be tested into contact with the antigen-coated solid phase, washing away any unbound material, and then detecting bound antibodies with an enzyme-labeled second antibody. The presence of the enzyme is detected using a chromogenic or luminogenic substrate.
To evaluate biotinylated peptide 147, wells of a microtiter plate were coated with streptavidin at a concentration of 1 μg/ml in 50 mM carbonate buffer, pH 9.6 (200 μl/well). Excess unbound streptavidin was removed by washing several times with phosphate buffered saline (PBS). Biotinylated peptide 147 was dissolved in a minimal volume of pure DMSO and then diluted into PBS to a concentration of 0.5 μg/ml. Two hundred microliters of the peptide solution were added to each well and the peptide allowed to bind to the streptavidin. After removing unbound peptide by washing with PBS, serum samples obtained from HIV-1 group O-infected patients were added to the wells of the plate. After a suitable incubation period, unbound material was removed by washing with PBS. A dilution of an anti-IgG:horse radish peroxidase (HRP) conjugate was added to each well and incubated for 30 minutes at 37° C. Unbound material was removed by extensive washing. Substrate solution containing O-phenylenediamine (OPD) and H2O2 was added to each well and the plate was further incubated, protected from light. After a 30 minute incubation period at room temperature, the reaction was terminated by the addition of 50 μl of 4N H2SO4 and the absorbance of each well was read at 492 nm.
Peptide 147 was first tested by using undiluted (10 μl) serum samples. The sample measurements are in optical density (OD).
A panel of serially diluted group O sera was tested with peptide 147 in order to evaluate the sensitivity of an ELISA using this antigen. Streptavidin-coated plates were prepared and loaded with peptide 147 as before, and tested using the dilutional panels. In addition, in order to compare the performance of […] peptide 147 with that of a genuine group O sequence, a second peptide was synthesized (peptide 146) corresponding to the sequence of the DUR variant.
These peptides cover precisely the same region of gp41, and were tested in parallel.

type B sample = experiment: ELISA: biotinylated peptide bound to streptavidin-coated wells, type B sample; assay type: binding, human; conditions: undiluted
[2] = test system: antibodies to HIV-1 group O; experiment: Chemiluminescent ELISA: serially diluted peptide on streptavidin-coated wells, serum ODS007b 1:60, anti-human IgG:HRP, luminol; assay type: binding; conditions: for luminescent units: serum ODS007b 1:60
Protocol: To compare the performance of peptide 147 to another genuine group O sequence, the peptide corresponding to the ANT70 sequence was synthesized (peptide 80). Peptides 147 and 80 were dissolved at the same concentration, serially diluted, and bound to streptavidin-coated wells. A 1:60 dilution of serum sample ODS007b (see Table 3) was added to all wells and incubated. After washing, an anti-human IgG:HRP conjugate was added, incubated, and the wells again thoroughly washed. In this case, a chemiluminescent substrate was used, consisting of luminol and a peracid salt. The emitted light was quantified using a luminometer. The results are tabulated in Table 4 and shown graphically in FIG. 2.

Sequence: NQQRLNSWGCKGRIICYTSARWH (HIV Consensus) [peptide 147]
- performance compared with a genuine group O sequence (peptide 146) ([1]; a number of the dilutional panels, in words): equaled or significantly exceeded that of a genuine group O sequence
- binding of antibodies against the group O gp41 immunodominant region ([1]; highly diluted samples, in words): suitable antigen capable of binding antibodies against the group O gp41 immunodominant region
- OD492 ([1]; negative control (uninfected blood donor), undiluted sample (10 μl)): 0.056 OD
- OD492 ([1]; panel OP1, sample OP1A, dilution of original sample 2): 2.500 OD
- OD492 ([1]; panel OP1, sample OP1B, dilution of original sample 4): 2.298 OD
- OD492 ([1]; panel OP1, sample OP1C, dilution of original sample 8): 2.465 OD
- OD492 ([1]; panel OP1, sample OP1D, dilution of original sample 16): 2.387 OD
- OD492 ([1]; panel OP1, sample OP1E, dilution of original sample 32): 2.013 OD
- OD492 ([1]; panel OP1, sample OP1F, dilution of original sample 64): 1.448 OD
- OD492 ([1]; panel OP1, sample OP1G, dilution of original sample 128): 1.150 OD
- OD492 ([1]; panel OP1, sample OP1H, dilution of original sample 256): 0.927 OD
- OD492 ([1]; panel OP1, sample OP1I, dilution of original sample 512): 0.504 OD
- OD492 ([1]; panel OP1, sample OP1J, dilution of original sample 1024): 0.053 OD
- OD492 ([1]; panel OP2, sample OP2A, dilution of original sample 5): 2.236 OD
- OD492 ([1]; panel OP2, sample OP2B, dilution of original sample 10): 2.320 OD
- OD492 ([1]; panel OP2, sample OP2C, dilution of original sample 20): 2.157 OD
- OD492 ([1]; panel OP2, sample OP2D, dilution of original sample 40): 1.844 OD
- OD492 ([1]; panel OP2, sample OP2E, dilution of original sample 80): 1.061 OD
- OD492 ([1]; panel OP2, sample OP2F, dilution of original sample 160): 0.689 OD
- OD492 ([1]; panel OP2, sample OP2G, dilution of original sample 320): 0.327 OD
- OD492 ([1]; panel OP2, sample OP2H, dilution of original sample 640): 0.184 OD
- OD492 ([1]; panel OP2, sample OP2I, dilution of original sample 1280): 0.179 OD
- OD492 ([1]; panel OP2, sample OP2J, dilution of original sample 2560): 0.090 OD
- OD492 ([1]; panel OP3, sample OP3A, dilution of original sample 300): 0.229 OD
- OD492 ([1]; panel OP3, sample OP3B, dilution of original sample 600): 0.373 OD
- OD492 ([1]; panel OP3, sample OP3C, dilution of original sample 1200): 0.211 OD
- OD492 ([1]; panel OP4, sample OP4A, dilution of original sample 100): 0.774 OD
- OD492 ([1]; panel OP4, sample OP4B, dilution of original sample 200): 0.608 OD
- OD492 ([1]; panel OP4, sample OP4C, dilution of original sample 400): 0.398 OD
- OD492 ([1]; panel OP4, sample OP4D, dilution of original sample 800): 0.277 OD
- OD492 ([1]; panel OP4, sample OP4E, dilution of original sample 1600): 0.040 OD
- OD492 ([1]; panel OP5, sample OP5A, dilution of original sample 100): 1.624 OD
- OD492 ([1]; panel OP5, sample OP5B, dilution of original sample 200): 1.027 OD
- OD492 ([1]; panel OP5, sample OP5C, dilution of original sample 400): 0.225 OD
- OD492 ([1]; panel OP5, sample OP5D, dilution of original sample 800): 0.302 OD
- OD492 ([1]; panel OP6, sample OP6A, dilution of original sample 50): 0.667 OD
- OD492 ([1]; panel OP7-2, sample OP7-2A, dilution of original sample 100): 2.081 OD
- OD492 ([1]; panel OP7-2, sample OP7-2B, dilution of original sample 200): 1.817 OD
- OD492 ([1]; panel OP7-2, sample OP7-2C, dilution of original sample 400): 1.346 OD
- OD492 ([1]; panel OP7-2, sample OP7-2D, dilution of original sample 800): 0.847 OD
- OD492 ([1]; sample ODS001, undiluted): 2.500 OD
- OD492 ([1]; sample ODS002, undiluted): 2.500 OD
- OD492 ([1]; sample ODS003, undiluted): 2.500 OD
- OD492 ([1]; sample ODS004, undiluted): 2.500 OD
- OD492 ([1]; sample ODS006, undiluted): 2.500 OD
- OD492 ([1]; sample ODS007a, undiluted): 2.500 OD
- OD492 ([1]; sample ODS007b, undiluted): 2.500 OD
- OD492 ([1]; sample ODS009, undiluted): 2.500 OD
- recognition by antibodies produced in response to an HIV-1 group O infection ([1]; undiluted specimens, in words): capable of recognizing peptide 147
- OD492 (type B sample): 1.926 OD
- detection of antibodies to HIV-1 group O compared with a naturally occurring isolate (peptide 80) ([2]; in words): comparable to that of a naturally occurring isolate
- luminescent units ([2]; peptide 0.020 ug/ml): 0.619 luminescent units
- luminescent units ([2]; peptide 0.039 ug/ml): 0.504 luminescent units
- luminescent units ([2]; peptide 0.078 ug/ml): 0.740 luminescent units
- luminescent units ([2]; peptide 0.156 ug/ml): 1.199 luminescent units
- luminescent units ([2]; peptide 0.313 ug/ml): 2.090 luminescent units
- luminescent units ([2]; peptide 0.625 ug/ml): 3.093 luminescent units
- luminescent units ([2]; peptide 1.250 ug/ml): 2.885 luminescent units
- luminescent units ([2]; peptide 2.500 ug/ml): 2.374 luminescent units
